According to PubChem BioAssay AID330 (DTP/NCI, 2004):
Values joined by “and” are separate entries in the source; they are usually repeats but may differ in a detail not shown here. Equal entries are not always repeated. Toxic doses and inconclusive results are not listed.

System: P388 leukemia ip, CD2F1 mice, survival T/C
Test: NCI In Vivo Anticancer Drug Screen. Data for tumor model P388 Leukemia (intraperitoneal) in CD2F1 (CDF1) mice
Conditions: endpoint: median survival time, higher = longer survival
Procedure, shortened: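 Mice carrying the transplanted tumor received test compound or vehicle. Survival was recorded in each group, and the value is the treated-group measurement divided by that of the vehicle-treated control group.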

[1] = dose: 100.0 mg/kg/injection, schedule: Q04DX003 (ip), vehicle: saline with Tween-80
[2] = dose: 12.5 mg/kg/injection, schedule: Q01DX009 (ip), vehicle: saline
[3] = dose: 25.0 mg/kg/injection, schedule: Q01DX009 (ip), vehicle: saline
[4] = dose: 6.25 mg/kg/injection, schedule: Q01DX005 (ip), vehicle: Klucel (hydroxypropylcellulose) (HPC)
[5] = dose: 12.5 mg/kg/injection, schedule: Q01DX009 (ip), vehicle: other
[6] = dose: 25.0 mg/kg/injection, schedule: Q01DX009 (ip), vehicle: other
[7] = dose: 50.0 mg/kg/injection, schedule: Q01DX009 (ip), vehicle: other
[8] = dose: 100.0 mg/kg/injection, schedule: Q01DX009 (ip), vehicle: other
[9] = dose: 200.0 mg/kg/injection, schedule: Q01DX009 (ip), vehicle: other
[10] = dose: 50.0 mg/kg/injection, schedule: Q01DX005 (ip), vehicle: saline with Tween-80
[11] = dose: 100.0 mg/kg/injection, schedule: Q01DX005 (ip), vehicle: saline with Tween-80
[12] = dose: 200.0 mg/kg/injection, schedule: Q01DX005 (ip), vehicle: saline with Tween-80
[13] = dose: 50.0 mg/kg/injection, schedule: Q01DX009 (ip), vehicle: saline with Tween-80
[14] = dose: 50.0 mg/kg/injection, schedule: Q01DX009 (ip), vehicle: saline

## COC(=O)C(Cc1ccccc1)NCCNC(C)=O (configuration not stated)
[1]
  T/C: 95 % of control
dose: 200.0 mg/kg/injection, schedule: Q04DX003 (ip), vehicle: saline with Tween-80
  T/C: 95 % of control

## O=NN(CCCl)C(=O)Nc1ccccc1
dose: 0.5 mg/kg/injection, schedule: Q04DX003 (ip), vehicle: saline with Tween-80
  T/C: 200 % of control
dose: 1.25 mg/kg/injection, schedule: Q04DX003 (ip), vehicle: saline with Tween-80
  T/C: 150 % of control
dose: 2.5 mg/kg/injection, schedule: Q04DX003 (ip), vehicle: saline with Tween-80
  T/C: 179 % of control
dose: 5.0 mg/kg/injection, schedule: Q04DX003 (ip), vehicle: saline with Tween-80
  T/C: 233 % of control
dose: 6.25 mg/kg/injection, schedule: Q01DX009 (ip), vehicle: saline
  T/C: 227 % of control
[2]
  T/C: 118 % of control
dose: 12.5 mg/kg/injection, schedule: Q04DX003 (ip), vehicle: saline with Tween-80
  T/C: 250 % of control
[3]
  T/C: 95 % of control
dose: 25.0 mg/kg/injection, schedule: Q04DX003 (ip), vehicle: saline with Tween-80
  T/C: 91 % of control

## O=c1c(N=Nc2ccccc2)c(C(O)C(O)CO)[nH]n1-c1ccc(Cl)cc1 (configuration not stated)
dose: 63.5 mg/kg/injection, schedule: Q01DX001 (ip), vehicle: Klucel (hydroxypropylcellulose) (HPC)
  T/C: 87 % of control
dose: 127.0 mg/kg/injection, schedule: Q01DX001 (ip), vehicle: Klucel (hydroxypropylcellulose) (HPC)
  T/C: 89 % of control
dose: 254.0 mg/kg/injection, schedule: Q01DX001 (ip), vehicle: Klucel (hydroxypropylcellulose) (HPC)
  T/C: 100 % of control

## COc1cc(OCc2ccccc2)c(O)cc1-c1coc2cc(OCc3ccccc3)ccc2c1=O
dose: 100.0 mg/kg/injection, schedule: Q01DX001 (ip), vehicle: Klucel (hydroxypropylcellulose) (HPC)
  T/C: 96 % of control
dose: 200.0 mg/kg/injection, schedule: Q01DX001 (ip), vehicle: Klucel (hydroxypropylcellulose) (HPC)
  T/C: 100 % of control
dose: 400.0 mg/kg/injection, schedule: Q01DX001 (ip), vehicle: Klucel (hydroxypropylcellulose) (HPC)
  T/C: 94 % of control

## O=C(Nc1ccc(NC2=NCCN2)cc1)c1ccc(C(=O)Nc2ccc(NC3=NCCN3)cc2)c([N+](=O)[O-])c1
dose: 1.56 mg/kg/injection, schedule: Q01DX005 (ip), vehicle: Klucel (hydroxypropylcellulose) (HPC)
  T/C: 116 % of control
[4]
  T/C: 158 % of control
dose: 12.5 mg/kg/injection, schedule: Q01DX005 (ip), vehicle: Klucel (hydroxypropylcellulose) (HPC)
  T/C: 158 % of control

## O=C1c2ccccc2C(=O)N1CCP(=O)(c1ccccc1)c1ccccc1
[5]
  T/C: 98 % of control
[6]
  T/C: 106 % of control
[7]
  T/C: 98 % of control
[8]
  T/C: 91 % of control
[9]
  T/C: 91 % of control

## COCc1ccc2c(c1)C(O)NC(=O)O2 (configuration not stated)
[10]
  T/C: 102 % of control
[11]
  T/C: 107 % of control
[12]
  T/C: 109 % of control
dose: 400.0 mg/kg/injection, schedule: Q01DX005 (ip), vehicle: saline with Tween-80
  T/C: 117 % of control

## Cc1cc2cc3cc(C)c(N)cc3nc2cc1N
dose: 6.25 mg/kg/injection, schedule: Q01DX009 (ip), vehicle: saline with Tween-80
  T/C: 120 % of control and 219 % of control
[2]
  T/C: 113 % of control
[3]
  T/C: 110 % of control
[13]
  T/C: 97 % of control
[14]
  T/C: 114 % of control

## CCC(C)C(NC(=O)OCc1ccccc1)C(=O)ON1C(=O)CCC1=O (configuration not stated)
dose: 66.0 mg/kg/injection, schedule: Q04DX003 (ip), vehicle: saline with Tween-80
  T/C: 100 % of control
[1]
  T/C: 104 % of control
dose: 150.0 mg/kg/injection, schedule: Q04DX003 (ip), vehicle: saline with Tween-80
  T/C: 109 % of control

## CCC[CH2][Sn]([CH2]CCC)([n]1ccnc1)[n]1ccnc1
dose: 3.12 mg/kg/injection, schedule: Q01DX005 (ip), vehicle: Klucel (hydroxypropylcellulose) (HPC)
  T/C: 116 % of control
[4]
  T/C: 110 % of control

## c1csc(NC(Nc2nccs2)C23CC4CC(CC(C4)C2)C3)n1
[13]
  T/C: 96 % of control
dose: 100.0 mg/kg/injection, schedule: Q01DX009 (ip), vehicle: saline with Tween-80
  T/C: 101 % of control
dose: 200.0 mg/kg/injection, schedule: Q01DX009 (ip), vehicle: saline with Tween-80
  T/C: 100 % of control

## COc1ccc(OC)c(/C=C/C2=C(C)C(=O)CC(c3cc(OC)ccc3OC)C2C)c1 (configuration not stated)
dose: 100.0 mg/kg/injection, schedule: Q04DX003 (ip), vehicle: Klucel (hydroxypropylcellulose) (HPC)
  T/C: 90 % of control
dose: 200.0 mg/kg/injection, schedule: Q04DX003 (ip), vehicle: Klucel (hydroxypropylcellulose) (HPC)
  T/C: 88 % of control

## CC(=O)CC1CCCC(C#N)N1 (configuration not stated)
dose: 12.5 mg/kg/injection, schedule: Q01DX005 (ip), vehicle: saline
  T/C: 97 % of control
dose: 25.0 mg/kg/injection, schedule: Q01DX005 (ip), vehicle: saline
  T/C: 101 % of control
dose: 50.0 mg/kg/injection, schedule: Q01DX005 (ip), vehicle: saline
  T/C: 100 % of control and 98 % of control

## CCCCCCCCCCCCCC[N+]1([O-])CCCC1
[14]
  T/C: 94 % of control

## Nc1nc(F)nc2c1ncn2CC(O)CO (configuration not stated)
dose: 50.0 mg/kg/injection, schedule: Q01DX005 (ip), vehicle: distilled water + alcohol
  T/C: 100 % of control
dose: 100.0 mg/kg/injection, schedule: Q01DX005 (ip), vehicle: distilled water + alcohol
  T/C: 101 % of control
dose: 200.0 mg/kg/injection, schedule: Q01DX005 (ip), vehicle: distilled water + alcohol
  T/C: 95 % of control

## Cc1cc(O)c2c(c1O)C(=O)c1cc(O)cc(O)c1C2=O
dose: 6.25 mg/kg/injection, schedule: Q01DX005 (ip), vehicle: saline + alcohol
  T/C: 104 % of control
dose: 12.5 mg/kg/injection, schedule: Q01DX005 (ip), vehicle: saline + alcohol
  T/C: 101 % of control
dose: 25.0 mg/kg/injection, schedule: Q01DX005 (ip), vehicle: saline + alcohol
  T/C: 99 % of control

## C=CCCCC(=O)CCCCO
[7]
  T/C: 95 % of control
[8]
  T/C: 107 % of control
[9]
  T/C: 101 % of control

## CCCCCCCCCCCCCCCCSC1=CC(=O)C(Cl)=C(Cl)C1=O
dose: 10.0 mg/kg/injection, schedule: Q01DX009 (ip), vehicle: Klucel (hydroxypropylcellulose) (HPC)
  T/C: 96 % of control
dose: 20.0 mg/kg/injection, schedule: Q01DX009 (ip), vehicle: Klucel (hydroxypropylcellulose) (HPC)
  T/C: 96 % of control
dose: 40.0 mg/kg/injection, schedule: Q01DX009 (ip), vehicle: Klucel (hydroxypropylcellulose) (HPC)
  T/C: 95 % of control

## CCOC(=O)CC1(O)CSc2nc(N)cc(=O)n21 (configuration not stated)
dose: 50.0 mg/kg/injection, schedule: Q01DX005 (ip), vehicle: Klucel (hydroxypropylcellulose) (HPC)
  T/C: 94 % of control
dose: 100.0 mg/kg/injection, schedule: Q01DX005 (ip), vehicle: Klucel (hydroxypropylcellulose) (HPC)
  T/C: 99 % of control
dose: 200.0 mg/kg/injection, schedule: Q01DX005 (ip), vehicle: Klucel (hydroxypropylcellulose) (HPC)
  T/C: 91 % of control

## O=C(Nc1cccc2c1C(=O)c1cccc(Nc3ccc(NC(=O)c4ccccc4)c4c3C(=O)c3ccccc3C4=O)c1C2=O)c1ccccc1
[10]
  T/C: 95 % of control
[11]
  T/C: 89 % of control
[12]
  T/C: 93 % of control

## Cc1cc2nc(CC(=O)c3cccc([N+](=O)[O-])c3)c(=O)[nH]c2cc1C
dose: 7.5 mg/kg/injection, schedule: Q01DX005 (ip), vehicle: saline with Tween-80
  T/C: 95 % of control
dose: 15.0 mg/kg/injection, schedule: Q01DX005 (ip), vehicle: saline with Tween-80
  T/C: 96 % of control
dose: 30.0 mg/kg/injection, schedule: Q01DX005 (ip), vehicle: saline with Tween-80
  T/C: 91 % of control

## C#CCOc1ccc(O)c(C(=O)OCCCOC(=O)c2cc(OCC#C)ccc2O)c1
dose: 60.0 mg/kg/injection, schedule: Q01DX005 (ip), vehicle: saline with Tween-80
  T/C: 104 % of control
dose: 120.0 mg/kg/injection, schedule: Q01DX005 (ip), vehicle: saline with Tween-80
  T/C: 98 % of control
dose: 240.0 mg/kg/injection, schedule: Q01DX005 (ip), vehicle: saline with Tween-80
  T/C: 100 % of control

## O=C1/C(=C/c2cccnc2)Cc2ccccc21
[5]
  T/C: 103 % of control
[6]
  T/C: 103 % of control
[7]
  T/C: 99 % of control
[8]
  T/C: 99 % of control
[9]
  T/C: 94 % of control
